# Test results published in ChEMBL document CHEMBL5104091, “Pyridazine as a privileged structure: An updated review on anticancer activity of pyridazine containing bioactive molecules” (Eur J Med Chem, 2021).
# Assays:
# [1] = biological target: T1, Poly [ADP-ribose] polymerase 1 (Homo sapiens, UniProt P09874); assay: Inhibition of PARP1 (unknown origin) by colorimetric assay
# [2] = biological target: Protein deacetylase HDAC6 (Homo sapiens, UniProt Q9UBN7); assay: Inhibition of HDAC6 (unknown origin) measured after 15 mins by fluorescence based assay
# Chain of Protein deacetylase HDAC6 (Q9UBN7 whole entry): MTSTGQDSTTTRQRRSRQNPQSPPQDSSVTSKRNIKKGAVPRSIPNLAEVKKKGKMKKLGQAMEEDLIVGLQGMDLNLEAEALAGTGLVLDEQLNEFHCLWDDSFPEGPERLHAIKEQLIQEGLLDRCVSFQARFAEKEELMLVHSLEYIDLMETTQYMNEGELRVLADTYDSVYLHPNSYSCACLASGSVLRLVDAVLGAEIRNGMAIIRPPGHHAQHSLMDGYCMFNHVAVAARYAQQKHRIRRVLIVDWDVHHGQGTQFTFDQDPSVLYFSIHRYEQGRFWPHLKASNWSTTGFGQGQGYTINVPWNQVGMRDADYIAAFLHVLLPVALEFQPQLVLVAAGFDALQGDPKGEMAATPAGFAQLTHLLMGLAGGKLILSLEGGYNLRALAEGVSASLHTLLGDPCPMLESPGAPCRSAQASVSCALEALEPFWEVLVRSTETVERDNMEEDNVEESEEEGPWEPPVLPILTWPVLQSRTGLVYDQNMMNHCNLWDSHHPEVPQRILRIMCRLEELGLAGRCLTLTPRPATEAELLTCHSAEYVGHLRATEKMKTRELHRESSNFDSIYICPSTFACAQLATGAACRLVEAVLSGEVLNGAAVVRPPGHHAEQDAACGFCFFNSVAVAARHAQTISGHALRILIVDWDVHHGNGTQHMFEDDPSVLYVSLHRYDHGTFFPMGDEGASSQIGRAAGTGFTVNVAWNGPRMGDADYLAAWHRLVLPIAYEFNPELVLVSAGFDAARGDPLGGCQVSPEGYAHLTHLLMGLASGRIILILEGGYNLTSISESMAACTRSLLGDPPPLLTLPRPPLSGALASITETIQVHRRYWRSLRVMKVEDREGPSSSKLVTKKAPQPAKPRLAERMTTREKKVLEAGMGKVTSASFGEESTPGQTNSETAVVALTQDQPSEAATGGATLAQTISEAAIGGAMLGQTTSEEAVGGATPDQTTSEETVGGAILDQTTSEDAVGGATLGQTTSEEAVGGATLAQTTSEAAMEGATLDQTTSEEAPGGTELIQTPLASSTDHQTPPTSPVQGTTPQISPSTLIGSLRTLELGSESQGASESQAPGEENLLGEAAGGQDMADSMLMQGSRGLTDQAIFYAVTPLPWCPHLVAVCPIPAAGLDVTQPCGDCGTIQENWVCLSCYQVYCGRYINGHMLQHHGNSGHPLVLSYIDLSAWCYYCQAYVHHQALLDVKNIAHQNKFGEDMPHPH
# [3] = biological target: T2, Hepatocyte growth factor receptor (Homo sapiens, UniProt P08581); assay: Inhibition of c-Met (unknown origin) incubated for 20 to 30 mins in presence of [33P]-ATP by scintillation counter analysis
# T2 sequence (P08581 whole entry): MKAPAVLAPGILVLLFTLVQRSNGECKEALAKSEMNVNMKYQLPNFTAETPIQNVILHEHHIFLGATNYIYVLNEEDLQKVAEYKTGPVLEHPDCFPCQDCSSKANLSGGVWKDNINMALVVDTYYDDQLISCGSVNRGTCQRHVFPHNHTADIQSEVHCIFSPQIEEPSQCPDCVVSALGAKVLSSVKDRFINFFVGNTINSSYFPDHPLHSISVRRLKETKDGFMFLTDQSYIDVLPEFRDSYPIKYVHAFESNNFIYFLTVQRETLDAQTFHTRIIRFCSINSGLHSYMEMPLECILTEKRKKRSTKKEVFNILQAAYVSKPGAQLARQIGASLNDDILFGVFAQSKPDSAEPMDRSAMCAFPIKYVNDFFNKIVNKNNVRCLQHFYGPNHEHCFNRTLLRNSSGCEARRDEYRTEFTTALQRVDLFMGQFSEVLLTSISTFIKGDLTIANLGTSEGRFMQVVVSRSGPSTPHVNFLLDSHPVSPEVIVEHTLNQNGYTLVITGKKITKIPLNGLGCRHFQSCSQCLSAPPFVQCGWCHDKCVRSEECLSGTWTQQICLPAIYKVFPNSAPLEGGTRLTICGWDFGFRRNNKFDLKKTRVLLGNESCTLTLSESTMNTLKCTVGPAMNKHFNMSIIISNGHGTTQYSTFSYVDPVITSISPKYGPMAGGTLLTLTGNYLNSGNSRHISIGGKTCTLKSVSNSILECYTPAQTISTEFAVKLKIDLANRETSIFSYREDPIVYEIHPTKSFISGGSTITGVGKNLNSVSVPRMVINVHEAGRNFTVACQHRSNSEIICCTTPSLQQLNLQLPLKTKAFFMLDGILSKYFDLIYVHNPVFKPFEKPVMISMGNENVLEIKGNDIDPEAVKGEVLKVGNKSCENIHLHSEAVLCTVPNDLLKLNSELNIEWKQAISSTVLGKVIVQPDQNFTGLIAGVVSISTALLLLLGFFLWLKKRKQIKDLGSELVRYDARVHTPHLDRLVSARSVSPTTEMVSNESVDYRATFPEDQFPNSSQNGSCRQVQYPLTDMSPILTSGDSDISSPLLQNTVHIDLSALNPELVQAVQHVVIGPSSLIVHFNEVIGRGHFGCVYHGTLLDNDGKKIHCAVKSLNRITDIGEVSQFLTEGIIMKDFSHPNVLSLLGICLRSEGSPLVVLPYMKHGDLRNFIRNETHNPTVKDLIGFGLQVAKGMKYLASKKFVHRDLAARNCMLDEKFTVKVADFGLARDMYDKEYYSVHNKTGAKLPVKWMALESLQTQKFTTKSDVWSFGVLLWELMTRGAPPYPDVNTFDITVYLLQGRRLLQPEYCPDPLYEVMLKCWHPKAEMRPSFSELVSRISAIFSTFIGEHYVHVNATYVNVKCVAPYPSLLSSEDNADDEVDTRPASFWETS
# [4] = system: IMR-32; assay: Cytotoxicity against human IMR-32 cells assessed as cell growth inhibition; assay type: functional, cell-based
# [5] = system: HCT-116; assay: Cytotoxicity against human HCT-116 cells assessed as cell growth inhibition; assay type: functional, cell-based
# [6] = system: CCRF-SB; assay: Cytotoxicity against human CCRF-SB cells assessed as cell growth inhibition measured after 48 hrs by MTT assay; assay type: functional, cell-based
# [7] = system: MCF7; assay: Cytotoxicity against human MCF7 cells assessed as cell growth inhibition measured after 48 hrs by MTT assay; assay type: functional, cell-based; details: MCF7, 48 h
# [8] = system: NALM-6; assay: Cytotoxicity against human NALM-6 cells assessed as cell growth inhibition measured after 48 hrs by MTT assay; assay type: functional, cell-based; details: NALM-6, 48 h
# [9] = biological target: T1, Poly [ADP-ribose] polymerase 1; assay: Inhibition of PARP1 (unknown origin) incubated for 30 mins by ELISA assay
# [10] = system: COLO 205; assay: Cytotoxicity against human COLO 205 cells assessed as cell growth inhibition; assay type: functional, cell-based
# [11] = system: A-375; assay: Cytotoxicity against human A-375 cells assessed as cell growth inhibition; assay type: functional, cell-based
# [12] = biological target: Epidermal growth factor receptor (Homo sapiens, UniProt P00533); assay: Inhibition of EGFR (unknown origin)
# Chain of Epidermal growth factor receptor (P00533 whole entry): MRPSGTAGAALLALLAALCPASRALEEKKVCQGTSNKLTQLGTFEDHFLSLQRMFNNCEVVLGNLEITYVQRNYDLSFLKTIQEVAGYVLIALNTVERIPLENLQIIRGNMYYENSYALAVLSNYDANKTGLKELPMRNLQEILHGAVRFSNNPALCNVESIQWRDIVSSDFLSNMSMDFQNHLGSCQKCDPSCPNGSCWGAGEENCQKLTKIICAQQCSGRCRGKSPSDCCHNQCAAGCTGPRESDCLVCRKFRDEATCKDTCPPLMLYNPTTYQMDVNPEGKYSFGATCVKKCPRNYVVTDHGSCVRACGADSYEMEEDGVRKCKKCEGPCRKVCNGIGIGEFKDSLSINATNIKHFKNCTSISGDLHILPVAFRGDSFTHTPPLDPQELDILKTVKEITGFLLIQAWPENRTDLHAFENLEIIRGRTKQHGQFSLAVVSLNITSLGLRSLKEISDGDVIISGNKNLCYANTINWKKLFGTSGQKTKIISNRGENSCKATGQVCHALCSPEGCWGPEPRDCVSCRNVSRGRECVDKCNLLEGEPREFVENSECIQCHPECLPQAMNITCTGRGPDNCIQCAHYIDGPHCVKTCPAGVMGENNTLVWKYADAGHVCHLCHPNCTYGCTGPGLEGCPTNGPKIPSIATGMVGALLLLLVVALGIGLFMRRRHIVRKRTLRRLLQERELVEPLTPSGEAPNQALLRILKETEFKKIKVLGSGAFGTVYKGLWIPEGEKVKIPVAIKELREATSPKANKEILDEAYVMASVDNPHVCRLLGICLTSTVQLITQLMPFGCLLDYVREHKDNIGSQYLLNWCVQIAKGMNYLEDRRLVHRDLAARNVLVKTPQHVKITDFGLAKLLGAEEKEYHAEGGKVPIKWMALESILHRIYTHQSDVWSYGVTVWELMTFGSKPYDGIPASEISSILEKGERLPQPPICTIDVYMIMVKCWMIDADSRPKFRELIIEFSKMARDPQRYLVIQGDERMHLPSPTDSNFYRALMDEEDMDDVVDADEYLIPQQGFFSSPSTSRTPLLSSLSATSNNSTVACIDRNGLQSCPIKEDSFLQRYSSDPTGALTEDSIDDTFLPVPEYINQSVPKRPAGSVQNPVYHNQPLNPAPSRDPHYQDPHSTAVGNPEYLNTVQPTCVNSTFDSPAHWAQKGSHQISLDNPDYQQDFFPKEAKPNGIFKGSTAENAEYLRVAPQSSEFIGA
# [13] = system: MDA-MB-231; assay: Antiproliferative activity against human MDA-MB-231 cells assessed as cell growth inhibition measured after 48 hrs by WST-1 assay; assay type: functional, cell-based; details: MDA-MB-231, 48 h
# [14] = system: MDA-MB-231; assay: Potency index, ratio of 5-Fu IC50 to compound IC50 for antiproliferative activity against human MDA-MB-231 cells assessed as cell growth inhibition measured after 48 hrs by WST-1 assay; assay type: functional
# [15] = system: MCF7; assay: Antiproliferative activity against human MCF7 cells assessed as cell growth inhibition; assay type: functional, cell-based
# [16] = system: A549; assay: Antiproliferative activity against human A549 cells assessed as cell growth inhibition; assay type: functional, cell-based
# [17] = system: HUVEC; assay: Antiproliferative activity against VEGF-stimulated human HUVEC cells assessed as cell growth inhibition at 10 uM incubated for 72 hrs by resazurin dye based AlamarBlue assay relative to control; assay type: functional
# [18] = system: HT-29; assay: Antiproliferative activity against human HT-29 cells assessed as cell growth inhibition by propidium iodide staining based fluorescence assay; assay type: functional
# [19] = system: MIA PaCa-2; assay: Antiproliferative activity against human MIA PaCa-2 cells assessed as cell growth inhibition by propidium iodide staining based fluorescence assay; assay type: functional
# [20] = system: HaCaT; assay: Antiproliferative activity against human HaCaT cells assessed as cell growth inhibition; assay type: functional, cell-based
# [21] = system: MDA-MB-231; assay: Antiproliferative activity against human MDA-MB-231 cells assessed as cell growth inhibition; assay type: functional, cell-based
# [22] = system: PC-3; assay: Antiproliferative activity against human PC3 cells assessed as cell growth inhibition; assay type: functional
# [23] = system: K562; assay: Antiproliferative activity against human K562 cells assessed as cell growth inhibition; assay type: functional
# [24] = biological target: T2, Hepatocyte growth factor receptor; assay: Inhibition of human recombinant c-MET in presence of ATP by HTRF assay
# [25] = system: Hs746T; assay: Antiproliferative activity against human Hs746T cells assessed as cell growth inhibition measured after 72 hrs by WST-1 assay; assay type: functional, cell-based
# [26] = system: MDA-MB-436; assay: Antiproliferative activity against human MDA-MB-436 cells assessed as cell growth inhibition measured after 72 hrs by MTT assay; assay type: functional, cell-based; details: MDA-MB-436, 72 h
# [27] = system: PC-3; assay: Cytotoxicity against human PC-3 cells assessed as cell growth inhibition measured after 48 hrs by SRB assay; assay type: functional
# [28] = system: UACC-62; assay: Cytotoxicity against human UACC-62 cells assessed as cell growth inhibition measured after 48 hrs by SRB assay; assay type: functional
# [29] = system: SF-295; assay: Cytotoxicity against human SF-295 cells assessed as cell growth inhibition measured after 48 hrs by SRB assay; assay type: functional
# [30] = system: MDA-MB-435; assay: Cytotoxicity against human MDA-MB-435 cells assessed as cell growth inhibition measured after 48 hrs by SRB assay; assay type: functional
# [31] = system: SW-620; assay: Cytotoxicity against human SW-620 cells assessed as cell growth inhibition measured after 48 hrs by SRB assay; assay type: functional
# [32] = system: MCF7; assay: Cytotoxicity against human MCF7 cells assessed as cell growth inhibition measured after 48 hrs by SRB assay; assay type: functional
# [33] = system: SR; assay: Cytotoxicity against human SR cells assessed as cell growth inhibition measured after 48 hrs by SRB assay; assay type: functional
# [34] = system: A498; assay: Cytotoxicity against human A498 cells assessed as cell growth inhibition measured after 48 hrs by SRB assay; assay type: functional
# [35] = system: MDA-MB-468; assay: Cytotoxicity against human MDA-MB-468 cells assessed as cell growth inhibition measured after 48 hrs by SRB assay; assay type: functional
# [36] = system: SK-MEL-5; assay: Cytotoxicity against human SK-MEL-5 cells assessed as cell growth inhibition measured after 48 hrs by SRB assay; assay type: functional
# [37] = system: KM12; assay: Cytotoxicity against human KM12 cells assessed as cell growth inhibition measured after 48 hrs by SRB assay; assay type: functional
# [38] = system: OVCAR-3; assay: Cytotoxicity against human OVCAR-3 cells assessed as cell growth inhibition measured after 48 hrs by SRB assay; assay type: functional
# [39] = system: HCT-15; assay: Cytotoxicity against human HCT-15 cells assessed as cell growth inhibition measured after 48 hrs by SRB assay; assay type: functional
# [40] = system: A549; assay: Antiproliferative activity against human A549 cells assessed as cell growth inhibition measured after 48 hrs by MTT assay; assay type: functional, cell-based; details: A549, 48 h
# [41] = biological target: Vascular endothelial growth factor receptor 2 (Homo sapiens, UniProt P35968); assay: Inhibition of VEGFR2 (unknown origin) using ULight-4E-BP1 peptide as substrate incubated for 1 hr in presence of ATP by fluorescence based analysis
# [42] = system: A549; assay: Potency index, ratio of Sorafenib IC50 to compound IC50 for antiproliferative activity against human A549 cells assessed as cell growth inhibition measured after 48 hrs by MTT assay; assay type: functional
# [43] = Cytotoxicity against human CEM cells assessed as cell growth inhibition measured after 48 to 72 hrs by hoechst and PI staining based analysis; assay type: toxicity; details: CCRF-CEM cells, time 48-72 hrs
# [44] = system: MDA-MB-231; assay: Cytotoxicity against human MDA-MB-231 cells assessed as cell growth inhibition measured after 48 to 72 hrs by hoechst and PI staining based analysis; assay type: functional; details: time 48-72 hrs
# [45] = system: TMD8; assay: Cytotoxicity against human TMD8 cells assessed as cell growth inhibition measured after 72 hrs by WST-1 assay; assay type: functional, cell-based; details: TMD8, 72 h
# [46] = biological target: Tyrosine-protein kinase BTK (Homo sapiens, UniProt Q06187); assay: Inhibition of BTK (unknown origin) incubated for 30 mins in presence of ATP by fluorescence based analysis
# [47] = system: A549; assay: Cytotoxicity against human A549 cells assessed as cell growth inhibition measured after 72 hrs by MTT assay; assay type: functional, cell-based; details: A549, 72 h
# [48] = system: MCF7; assay: Cytotoxicity against human MCF7 cells assessed as cell growth inhibition measured after 72 hrs by MTT assay; assay type: functional, cell-based; details: MCF7, 72 h
# [49] = system: HepG2; assay: Cytotoxicity against human HepG2 cells assessed as cell growth inhibition measured after 72 hrs by MTT assay; assay type: functional, cell-based; details: HepG2, 72 h
# [50] = system: MCF7; assay: Antiproliferative activity against human MCF7 cells assessed as cell growth inhibition measured after 48 hrs by MTT assay; assay type: functional, cell-based; details: MCF7, 48 h
# [51] = system: HepG2; assay: Antiproliferative activity against human HepG2 cells assessed as inhibition of cell growth measured after 48 hrs by MTT assay; assay type: functional, cell-based; details: HepG2, 48 h
# [52] = system: Hep 3B2; assay: Anticancer activity against human Hep3B cells assessed as cell growth inhibition measured upto 72 hrs by MTS assay; assay type: functional, cell-based
# [53] = system: SH-SY5Y; assay: Anticancer activity against human SH-SY5Y cells assessed as cell growth inhibition measured upto 72 hrs by MTS assay; assay type: functional, cell-based
# T1 sequence (P09874 whole entry): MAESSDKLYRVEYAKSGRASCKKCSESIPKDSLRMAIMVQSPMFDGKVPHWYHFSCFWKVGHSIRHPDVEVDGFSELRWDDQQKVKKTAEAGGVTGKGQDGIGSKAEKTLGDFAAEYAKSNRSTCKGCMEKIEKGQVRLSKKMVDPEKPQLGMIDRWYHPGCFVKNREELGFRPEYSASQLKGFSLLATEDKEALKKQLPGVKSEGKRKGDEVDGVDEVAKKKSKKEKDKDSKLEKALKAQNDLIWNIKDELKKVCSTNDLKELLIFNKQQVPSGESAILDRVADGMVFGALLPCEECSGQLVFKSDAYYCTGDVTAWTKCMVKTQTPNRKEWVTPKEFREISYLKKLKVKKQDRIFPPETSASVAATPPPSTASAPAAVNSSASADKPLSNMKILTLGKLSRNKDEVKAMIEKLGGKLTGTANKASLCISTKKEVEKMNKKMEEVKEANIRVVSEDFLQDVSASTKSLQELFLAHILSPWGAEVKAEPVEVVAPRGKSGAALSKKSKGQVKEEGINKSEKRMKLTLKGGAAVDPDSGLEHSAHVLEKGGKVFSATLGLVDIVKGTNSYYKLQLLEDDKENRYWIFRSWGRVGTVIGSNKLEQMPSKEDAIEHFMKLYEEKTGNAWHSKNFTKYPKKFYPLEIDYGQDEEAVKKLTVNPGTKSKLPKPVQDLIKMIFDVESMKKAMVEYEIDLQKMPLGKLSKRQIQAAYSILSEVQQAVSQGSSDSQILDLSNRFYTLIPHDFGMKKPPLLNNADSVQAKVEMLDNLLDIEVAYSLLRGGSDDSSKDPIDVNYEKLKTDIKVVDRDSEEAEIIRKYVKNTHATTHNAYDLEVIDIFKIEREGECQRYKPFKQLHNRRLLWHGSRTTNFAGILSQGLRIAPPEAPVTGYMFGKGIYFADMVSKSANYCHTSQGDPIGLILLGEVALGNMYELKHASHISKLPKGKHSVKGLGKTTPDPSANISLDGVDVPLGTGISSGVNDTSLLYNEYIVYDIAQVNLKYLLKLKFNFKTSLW
smiles,measurement,setting,value
O=C(/C=C/c1ccc(CCCCCCc2n[nH]c(=O)c3cc(F)ccc23)cc1)NO,IC50,[1],7 nM
same,IC50,[2],57 nM
O=C(O)c1ccccc1Nc1ccc2nnc(-c3ccncc3)n2n1,IC50,[3],107000 nM
Cc1n[nH]c(=O)c2c1c1cc(F)ccc1n2Cc1cn(C2CCCCC2)nn1,IC50,[4],40 nM
N=C(N)NS(=O)(=O)c1ccc(Nc2ccc3nc4ccccc4c(=O)n3n2)cc1,IC50,[5],11900 nM
Clc1ccc2nnc(-c3c[nH]c4ccccc34)n2n1,IC50,[6],1640 nM
same,IC50,[7],3550 nM
same,IC50,[8],1140 nM
O=C(Nc1nc(-c2ccccc2)cs1)c1ccc(Cc2n[nH]c(=O)c3cccnc23)cc1,IC50,[9],45.5 nM
O=C(NC(Cc1c[nH]c2ccccc12)C1C(=O)N=C2C=CC=NN21)c1ccccc1 (centres undefined),IC50,[10],21 nM
same,IC50,[11],14 nM
CN(C)c1ccc(/C=N/NC(=O)Cn2nc(Cc3ccc(Cl)cc3)c3ccccc3c2=O)cc1,IC50,[12],0.45 nM
O=C1Nc2ccc(Cl)cc2/C1=N/Nc1nnc(-c2ccc(Cl)cc2)c2ccccc12,IC50,[13],12000 nM
same,Ratio IC50,[14],2.4
CC(C)[Si](C#Cc1cc(-n2cc(Cn3nc(-c4ccccc4)cc(-c4ccccc4)c3=O)nn2)cc(C#C[Si](C(C)C)(C(C)C)C(C)C)n1)(C(C)C)C(C)C,IC50,[15],3.25 µg/mL
same,IC50,[16],5 µg/mL
O=C(Nc1ccc(Oc2nnc(Cl)c3ccccc23)cc1)Nc1ccc(Cl)c(C(F)(F)F)c1,inhibition at 10 µM,[17],71.6%
COc1nc2ccc(C)cc2cc1Cc1cc(-c2ccccc2)n[nH]c1=O,IC50,[18],4500 nM
same,IC50,[19],2200 nM
COc1ccc(-c2nc(N3N=C(c4ccc(F)cc4)CCC3=O)n(C)c(=O)c2C#N)cc1,IC50,[20],> 50000 nM
same,IC50,[21],2560 nM
same,IC50,[15],3430 nM
CC1(C)CC(=O)C2=C(C1)n1c(=O)c3ccccc3c(=O)n1C2,GI50,[22],5300 nM
same,GI50,[23],9400 nM
O=c1ccc(-c2cccnc2)nn1CC1CN(c2ncc(-c3cnn(C4CCNCC4)c3)cn2)CCO1 (centres undefined),IC50,[24],35 nM
same,IC50,[25],1900 nM
O=C(/C=C/c1cccc([N+](=O)[O-])c1)N1CCN(C(=O)c2cc(Cc3n[nH]c(=O)c4ccccc34)ccc2F)CC1,IC50,[26],11600 nM
CCOC(=O)c1cc(C(=O)c2cc(OC)c(OC)c(OC)c2)n2nc(C)ccc12,GI50,[27],< 100 nM
same,GI50,[28],< 100 nM
same,GI50,[29],< 100 nM
same,GI50,[30],25.6 nM
same,GI50,[31],< 100 nM
same,GI50,[32],48.1 nM
same,GI50,[33],48.1 nM
same,GI50,[34],< 100 nM
same,GI50,[35],< 100 nM
same,GI50,[36],< 100 nM
same,GI50,[37],< 100 nM
same,GI50,[38],< 100 nM
same,GI50,[39],< 100 nM
CNC(=O)c1cc(Oc2ccc(NC(=O)c3nn(-c4ccc(Cl)cc4)cc(C)c3=O)cc2)ccn1,IC50,[40],370 nM
same,IC50,[41],0.12 nM
same,Ratio IC50,[42],3.4
O=c1c(Cl)c(Cl)cnn1-c1ccc(Cl)c(C(F)(F)F)c1,CC50,[43],330 nM
same,CC50,[44],2630 nM
CC(C)Nc1ccc2nnc(-c3cc(-c4cnn(C5CCN(CCO)CC5)c4)cnc3N)n2n1,IC50,[45],800 nM
same,IC50,[46],33 nM
COc1cc2c(Oc3ccc(NC(=O)c4nn(-c5ccccc5)ccc4=O)cc3F)ccnc2cc1OCCCN1CCN(C)CC1,IC50,[47],3 nM
same,IC50,[48],6 nM
same,IC50,[49],490 nM
O=c1[nH]nc(-c2nnc(S)o2)c2ccccc12,IC50,[50],4900 nM
same,IC50,[51],4500 nM
Cc1cccc(/C=N/NC(=O)Cn2nc(N3CCN(c4ccc(Cl)cc4)CC3)ccc2=O)c1,IC50,[52],24300 nM
same,IC50,[53],23200 nM
